From the NIST ThermoML archive (doi:10.1021/je201116t)
Numbers after ± are expanded uncertainties.

Key:
[1] = 101 kPa, Liquid; for viscosity: Capillary tube (Ostwald / Ubbelohde) method
[2] = xn = mol fraction of the nth substance listed; details: 101 kPa, Liquid, x1 = 1; for viscosity: Capillary tube (Ostwald / Ubbelohde) method

| mass density ([1]; 298.15 K) | viscosity ([1]; 298.15 K) | mass density ([1]; 303.15 K) | viscosity ([1]; 303.15 K) | mass density ([1]; 308.15 K) | viscosity ([1]; 308.15 K) | mass density ([1]; 313.15 K) | viscosity ([1]; 313.15 K) | viscosity ([2]; 298.15 K) | mass density ([2]; 298.15 K) | viscosity ([2]; 303.15 K) | mass density ([2]; 303.15 K) | viscosity ([2]; 308.15 K) | mass density ([2]; 308.15 K) | viscosity ([2]; 313.15 K) | mass density ([2]; 313.15 K) | Structure (SMILES) |
| --- | --- | --- | --- | --- | --- | --- | --- | --- | --- | --- | --- | --- | --- | --- | --- | --- |
| 1008.36 ± 1.2 kg/m3 | 243.49 ± 7.6 mPa·s | 1004.38 ± 1.2 kg/m3 | 164.81 ± 4.6 mPa·s | 1000.33 ± 1.2 kg/m3 | 113.44 ± 2.7 mPa·s | 996.237 ± 1.2 kg/m3 | 80.93 ± 1.8 mPa·s | – | – | – | – | – | – | – | – | CCC(=O)[O-].CC[NH+]1CCNCC1 [N-ethylpiperazinium propionate] |
| 805.814 ± 1.3 kg/m3 | 2.577 ± 0.032 mPa·s | 801.996 ± 1.3 kg/m3 | 2.272 ± 0.029 mPa·s | 798.13 ± 1.4 kg/m3 | 2.01 ± 0.025 mPa·s | 794.226 ± 1.4 kg/m3 | 1.786 ± 0.023 mPa·s | – | – | – | – | – | – | – | – | CCCCO [butan-1-ol] |
| – | – | – | – | – | – | – | – | 2.577 ± 0.032 mPa·s | 805.814 ± 1.3 kg/m3 | 2.272 ± 0.029 mPa·s | 801.996 ± 1.3 kg/m3 | 2.01 ± 0.025 mPa·s | 798.13 ± 1.4 kg/m3 | 1.786 ± 0.023 mPa·s | 794.226 ± 1.4 kg/m3 | CCCCO [butan-1-ol] + CCC(=O)[O-].CC[NH+]1CCNCC1 |
| 785.499 ± 1.4 kg/m3 | 1.091 ± 0.013 mPa·s | 781.197 ± 1.4 kg/m3 | 0.9986 ± 0.012 mPa·s | 776.853 ± 1.4 kg/m3 | 0.9139 ± 0.011 mPa·s | 772.468 ± 1.5 kg/m3 | 0.8387 ± 0.01 mPa·s | – | – | – | – | – | – | – | – | CCO [ethanol] |
| – | – | – | – | – | – | – | – | 1.091 ± 0.013 mPa·s | 785.499 ± 1.4 kg/m3 | 0.9986 ± 0.012 mPa·s | 781.197 ± 1.4 kg/m3 | 0.9139 ± 0.011 mPa·s | 776.853 ± 1.4 kg/m3 | 0.8387 ± 0.01 mPa·s | 772.468 ± 1.5 kg/m3 | CCO [ethanol] + CCC(=O)[O-].CC[NH+]1CCNCC1 |
| 786.686 ± 1.4 kg/m3 | 0.558 ± 0.0068 mPa·s | 781.993 ± 1.4 kg/m3 | 0.5261 ± 0.0065 mPa·s | 777.249 ± 1.4 kg/m3 | 0.4966 ± 0.0061 mPa·s | 772.475 ± 1.5 kg/m3 | 0.4702 ± 0.0058 mPa·s | – | – | – | – | – | – | – | – | CO [methanol] |
| – | – | – | – | – | – | – | – | 0.558 ± 0.0068 mPa·s | 786.686 ± 1.4 kg/m3 | 0.5261 ± 0.0065 mPa·s | 781.993 ± 1.4 kg/m3 | 0.4966 ± 0.0061 mPa·s | 777.249 ± 1.4 kg/m3 | 0.4702 ± 0.0058 mPa·s | 772.475 ± 1.5 kg/m3 | CO [methanol] + CCC(=O)[O-].CC[NH+]1CCNCC1 |
| 799.557 ± 1.3 kg/m3 | 1.941 ± 0.024 mPa·s | 795.543 ± 1.3 kg/m3 | 1.728 ± 0.021 mPa·s | 791.479 ± 1.4 kg/m3 | 1.545 ± 0.019 mPa·s | 787.371 ± 1.4 kg/m3 | 1.385 ± 0.017 mPa·s | – | – | – | – | – | – | – | – | CCCO [propan-1-ol] |
| – | – | – | – | – | – | – | – | 1.941 ± 0.024 mPa·s | 799.557 ± 1.3 kg/m3 | 1.728 ± 0.021 mPa·s | 795.543 ± 1.3 kg/m3 | 1.545 ± 0.019 mPa·s | 791.479 ± 1.4 kg/m3 | 1.385 ± 0.017 mPa·s | 787.371 ± 1.4 kg/m3 | CCCO [propan-1-ol] + CCC(=O)[O-].CC[NH+]1CCNCC1 |
